Results: patent US20020026053A1, “Novel 3-(substituted) -2- indolinones compounds and use thereof as inhibitors of protein kinase activity” (priority 1997, published 2002)

Target: T1, Met receptor (EGFR/Met chimeric cells, EMR) (Homo sapiens, UniProt P08581)
T1 construct: expressed in transfected cells; the other entry of the earlier key: EGFR (P00533, Epidermal growth factor receptor)
Experiment: Met Autophosphorylation Assay
Format: biochemical
Conditions: protocol P.130
Method in brief: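 Met phosphorylation was measured by capture ELISA. Lysates (90 μg/100 μl, HNTG plus 1 mM PMSF) from transiently transfected EGFR/Met chimera (EMR) cells were bound for 60 min at room temperature to wells holding rabbit anti-Met (C-28) on goat anti-rabbit coat. Phosphotyrosine was the read-out.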

T1 sequence (P08581 with tags, fused parts or gaps): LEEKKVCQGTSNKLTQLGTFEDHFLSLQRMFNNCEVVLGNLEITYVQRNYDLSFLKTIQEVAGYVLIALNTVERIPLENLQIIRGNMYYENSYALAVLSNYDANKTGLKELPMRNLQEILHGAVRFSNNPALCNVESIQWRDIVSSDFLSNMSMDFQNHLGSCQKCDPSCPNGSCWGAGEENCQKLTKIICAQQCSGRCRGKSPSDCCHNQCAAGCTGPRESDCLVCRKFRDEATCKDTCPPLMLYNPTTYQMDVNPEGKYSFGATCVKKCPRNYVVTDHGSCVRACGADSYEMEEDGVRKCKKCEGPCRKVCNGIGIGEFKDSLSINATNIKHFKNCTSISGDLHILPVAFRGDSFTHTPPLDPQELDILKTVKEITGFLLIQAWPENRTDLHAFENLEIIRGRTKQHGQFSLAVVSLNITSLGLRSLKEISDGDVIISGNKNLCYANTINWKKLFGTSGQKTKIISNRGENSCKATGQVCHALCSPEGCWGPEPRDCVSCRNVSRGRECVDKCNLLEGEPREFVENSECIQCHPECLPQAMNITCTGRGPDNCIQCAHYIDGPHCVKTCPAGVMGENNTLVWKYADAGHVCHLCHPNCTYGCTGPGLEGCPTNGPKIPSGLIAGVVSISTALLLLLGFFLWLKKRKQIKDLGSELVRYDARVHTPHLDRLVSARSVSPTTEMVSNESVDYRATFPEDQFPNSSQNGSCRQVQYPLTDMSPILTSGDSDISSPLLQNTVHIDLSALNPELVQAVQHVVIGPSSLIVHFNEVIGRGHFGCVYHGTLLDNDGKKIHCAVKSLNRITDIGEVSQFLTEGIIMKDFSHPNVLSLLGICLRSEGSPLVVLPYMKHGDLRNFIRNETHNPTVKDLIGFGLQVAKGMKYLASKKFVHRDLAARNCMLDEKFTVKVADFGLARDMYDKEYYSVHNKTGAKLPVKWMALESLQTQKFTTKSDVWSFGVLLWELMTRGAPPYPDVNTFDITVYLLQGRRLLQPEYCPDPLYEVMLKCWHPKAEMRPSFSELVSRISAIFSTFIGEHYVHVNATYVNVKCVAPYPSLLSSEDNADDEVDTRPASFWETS

SMILES | Met Kinase % Inhibition (P.130)
Cc1c(Br)cc(Br)c2c1C(=Cc1cccc(F)c1)C(=O)N2 [10736/H07] | 31.0%
Cc1c(Br)cc(Br)c2c1C(=Cc1ccccc1F)C(=O)N2 [10736/H08] | 33.4%
CCc1ccc(C=C2C(=O)Nc3c(Br)cc(Br)c(C)c32)cc1 [10736/H09] | 32.1%
COc1cccc(C=C2C(=O)Nc3c(Br)cc(Br)c(C)c32)c1 [10736/H10] | 32.1%
Cc1c(Br)cc(Br)c2c1C(=Cc1ccccc1Cl)C(=O)N2 [10736/H11] | 41.5%
CCOc1ccc(C=C2C(=O)Nc3c(Br)cc(Br)cc32)cc1 [10737/A02] | 53.2%
Cc1ccc(C=C2C(=O)Nc3c(Br)cc(Br)cc32)c(C)c1 [10737/A03] | 58.9%
O=C1Nc2c(Br)cc(Br)cc2C1=Cc1cc(F)ccc1F [10737/A04] | 63.5%
O=C1Nc2c(Br)cc(Br)cc2C1=Cc1cccc(F)c1F [10737/A05] | 58.9%
COc1ccc(C=C2C(=O)Nc3c(Br)cc(Br)cc32)cc1F [10737/A06] | 57.1%
Cc1ccc(C)c(C=C2C(=O)Nc3c(Br)cc(Br)cc32)c1 [10737/A07] | 30.1%
O=C1Nc2c(Br)cc(Br)cc2C1=Cc1ccc2ccccc2c1 [10737/A08] | 28.3%
O=C1Nc2c(Br)cc(Br)cc2C1=Cc1ccc(Oc2ccccc2)cc1 [10737/A09] | 47.9%
CC(C)(C)c1ccc(Oc2cccc(C=C3C(=O)Nc4c(Br)cc(Br)cc43)c2)cc1 [10737/A10] | 15.5%
O=C1Nc2c(Br)cc(Br)cc2C1=Cc1cccc(Oc2cccc(C(F)(F)F)c2)c1 [10737/A11] | 25.3%
CCOc1ccc(C=C2C(=O)Nc3ccc(I)cc32)cc1 [10737/B02] | 85.0%
Cc1ccc(C=C2C(=O)Nc3ccc(I)cc32)c(C)c1 [10737/B03] | 86.3%
O=C1Nc2ccc(I)cc2C1=Cc1cc(F)ccc1F [10737/B04] | 88.9%
O=C1Nc2ccc(I)cc2C1=Cc1cccc(F)c1F [10737/B05] | 89.5%
COc1ccc(C=C2C(=O)Nc3ccc(I)cc32)cc1F [10737/B06] | 84.7%
Cc1ccc(C)c(C=C2C(=O)Nc3ccc(I)cc32)c1 [10737/B07] | 82.5%
O=C1Nc2ccc(I)cc2C1=Cc1ccc2ccccc2c1 [10737/B08] | 84.1%
O=C1Nc2ccc(I)cc2C1=Cc1ccc(Oc2ccccc2)cc1 [10737/B09] | 77.0%
CC(C)(C)c1ccc(Oc2cccc(C=C3C(=O)Nc4ccc(I)cc43)c2)cc1 [10737/B10] | 84.7%

SMILES | Met Kinase % Inhibition (P.130)
O=C1Nc2ccc(I)cc2C1=Cc1cccc(Oc2cccc(C(F)(F)F)c2)c1 [10737/B11] | 78.8%
CCOc1ccc(C=C2C(=O)Nc3ccc(Br)c(C)c32)cc1 [10737/C02] | 30.6%
Cc1ccc(C=C2C(=O)Nc3ccc(Br)c(C)c32)c(C)c1 [10737/C03] | 52.5%
Cc1c(Br)ccc2c1C(=Cc1cc(F)ccc1F)C(=O)N2 [10737/C04] | 82.0%
Cc1c(Br)ccc2c1C(=Cc1cccc(F)c1F)C(=O)N2 [10737/C05] | 81.8%
COc1ccc(C=C2C(=O)Nc3ccc(Br)c(C)c32)cc1F [10737/C06] | 38.6%
Cc1ccc(C)c(C=C2C(=O)Nc3ccc(Br)c(C)c32)c1 [10737/C07] | 57.5%
Cc1c(Br)ccc2c1C(=Cc1ccc3ccccc3c1)C(=O)N2 [10737/C08] | 54.1%
Cc1c(Br)ccc2c1C(=Cc1ccc(Oc3ccccc3)cc1)C(=O)N2 [10737/C09] | 27.6%
Cc1c(Br)ccc2c1C(=Cc1cccc(Oc3ccc(C(C)(C)C)cc3)c1)C(=O)N2 [10737/C10] | 60.0%
Cc1c(Br)ccc2c1C(=Cc1cccc(Oc3cccc(C(F)(F)F)c3)c1)C(=O)N2 [10737/C11] | 34.0%
CCOc1ccc(C=C2C(=O)Nc3ccc(S(=O)(=O)NC)cc32)cc1 [10737/D02] | 27.8%
CNS(=O)(=O)c1ccc2c(c1)C(=Cc1ccc(C)cc1C)C(=O)N2 [10737/D03] | 38.6%
CNS(=O)(=O)c1ccc2c(c1)C(=Cc1cc(F)ccc1F)C(=O)N2 [10737/D04] | 33.5%
CNS(=O)(=O)c1ccc2c(c1)C(=Cc1cccc(F)c1F)C(=O)N2 [10737/D05] | 41.8%
CNS(=O)(=O)c1ccc2c(c1)C(=Cc1ccc(OC)c(F)c1)C(=O)N2 [10737/D06] | 37.4%
CNS(=O)(=O)c1ccc2c(c1)C(=Cc1cc(C)ccc1C)C(=O)N2 [10737/D07] | 37.0%
CNS(=O)(=O)c1ccc2c(c1)C(=Cc1ccc3ccccc3c1)C(=O)N2 [10737/D08] | 42.0%
CNS(=O)(=O)c1ccc2c(c1)C(=Cc1ccc(Oc3ccccc3)cc1)C(=O)N2 [10737/D09] | 36.0%
CNS(=O)(=O)c1ccc2c(c1)C(=Cc1cccc(Oc3ccc(C(C)(C)C)cc3)c1)C(=O)N2 [10737/D10] | 24.8%
CNS(=O)(=O)c1ccc2c(c1)C(=Cc1cccc(Oc3cccc(C(F)(F)F)c3)c1)C(=O)N2 [10737/D11] | 43.4%
CCOc1ccc(C=C2C(=O)Nc3ccc(S(=O)(=O)Nc4ccc(C(F)(F)F)cc4)cc32)cc1 [10737/E02] | 53.0%
Cc1ccc(C=C2C(=O)Nc3ccc(S(=O)(=O)Nc4ccc(C(F)(F)F)cc4)cc32)c(C)c1 [10737/E03] | 13.4%
O=C1Nc2ccc(S(=O)(=O)Nc3ccc(C(F)(F)F)cc3)cc2C1=Cc1cc(F)ccc1F [10737/E04] | 79.3%

SMILES | Met Kinase % Inhibition (P.130)
O=C1Nc2ccc(S(=O)(=O)Nc3ccc(C(F)(F)F)cc3)cc2C1=Cc1cccc(F)c1F [10737/E05] | 80.9%
COc1ccc(C=C2C(=O)Nc3ccc(S(=O)(=O)Nc4ccc(C(F)(F)F)cc4)cc32)cc1F [10737/E06] | 57.8%
Cc1ccc(C)c(C=C2C(=O)Nc3ccc(S(=O)(=O)Nc4ccc(C(F)(F)F)cc4)cc32)c1 [10737/E07] | 43.1%
O=C1Nc2ccc(S(=O)(=O)Nc3ccc(C(F)(F)F)cc3)cc2C1=Cc1ccc2ccccc2c1 [10737/E08] | 61.9%
O=C1Nc2ccc(S(=O)(=O)Nc3ccc(C(F)(F)F)cc3)cc2C1=Cc1ccc(Oc2ccccc2)cc1 [10737/E09] | 21.2%
CC(C)(C)c1ccc(Oc2cccc(C=C3C(=O)Nc4ccc(S(=O)(=O)Nc5ccc(C(F)(F)F)cc5)cc43)c2)cc1 [10737/E10] | 49.3%
O=C1Nc2ccc(S(=O)(=O)Nc3ccc(C(F)(F)F)cc3)cc2C1=Cc1cccc(Oc2cccc(C(F)(F)F)c2)c1 [10737/E11] | 24.8%
CCOc1ccc(C=C2C(=O)Nc3ccc(S(=O)(=O)N4CCOCC4)cc32)cc1 [10737/F02] | 67.4%
Cc1ccc(C=C2C(=O)Nc3ccc(S(=O)(=O)N4CCOCC4)cc32)c(C)c1 [10737/F03] | 28.0%
O=C1Nc2ccc(S(=O)(=O)N3CCOCC3)cc2C1=Cc1cc(F)ccc1F [10737/F04] | 62.8%
O=C1Nc2ccc(S(=O)(=O)N3CCOCC3)cc2C1=Cc1cccc(F)c1F [10737/F05] | 67.1%
COc1ccc(C=C2C(=O)Nc3ccc(S(=O)(=O)N4CCOCC4)cc32)cc1F [10737/F06] | 62.8%
Cc1ccc(C)c(C=C2C(=O)Nc3ccc(S(=O)(=O)N4CCOCC4)cc32)c1 [10737/F07] | 33.3%
O=C1Nc2ccc(S(=O)(=O)N3CCOCC3)cc2C1=Cc1ccc2ccccc2c1 [10737/F08] | 76.1%
O=C1Nc2ccc(S(=O)(=O)N3CCOCC3)cc2C1=Cc1ccc(Oc2ccccc2)cc1 [10737/F09] | 76.5%
CC(C)(C)c1ccc(Oc2cccc(C=C3C(=O)Nc4ccc(S(=O)(=O)N5CCOCC5)cc43)c2)cc1 [10737/F10] | 78.6%
O=C1Nc2ccc(S(=O)(=O)N3CCOCC3)cc2C1=Cc1cccc(Oc2cccc(C(F)(F)F)c2)c1 [10737/F11] | 75.6%
CCOc1ccc(C=C2C(=O)Nc3ccc(CCCl)cc32)cc1 [10737/G02] | 32.2%
Cc1ccc(C=C2C(=O)Nc3ccc(CCCl)cc32)c(C)c1 [10737/G03] | 37.4%
O=C1Nc2ccc(CCCl)cc2C1=Cc1cc(F)ccc1F [10737/G04] | 49.1%
O=C1Nc2ccc(CCCl)cc2C1=Cc1cccc(F)c1F [10737/G05] | 53.2%
COc1ccc(C=C2C(=O)Nc3ccc(CCCl)cc32)cc1F [10737/G06] | 50.7%
